The text below walks through data of a melting point compilation (Tetko et al.; mined from patent text by program, amines drawn as free bases though some values may be those of a salt).

As a reminder, the melting point is the temperature of the solid-liquid transition. `Oc1ccc(-c2nnc(CSCCCCOc3ccccc3)o2)cc1`: the melting point is 129 to 130 °C.

`CCOc1ccc2c(c1)C(C)(c1cc(C(=O)ON3C(=O)CCC3=O)ccc1Cl)C(=O)N2S(=O)(=O)c1ccc(C(=O)NC(C)(C)C)cc1` (stereo unspecified) came in with a melting point of 168 °C.

Molecule `CCc1nc2ccc(OC(F)(F)F)cc2[nH]1` came in with a melting point of 135 to 137 °C.

On to `CC1(C)CC(c2ccccn2)c2cc(C(=O)O)ccc2O1` (stereo unspecified), for which the melting point fell in the range of 207 to 208 °C.

For the molecule `COc1cc(N2CCCN(C[C@@H](C)O)CC2)ccc1Nc1ncc2ccc(-c3ccccc3OC)n2n1`, the melting point is 70 to 79 °C.

As to `CCOC(=O)COc1ccc([N+](=O)[O-])cc1OC`, the melting point was 87 to 88 °C.

In turn, `Cc1cc(Cn2cc(C(F)(F)C(F)(F)F)c(C(F)(F)C(F)(F)F)n2)ccc1NC(=O)c1cccc(Br)c1C(=O)N[C@@H](C)CS(C)=O` (stereo partly specified) showed a melting point of 127 to 129 °C.

In turn, `CC(=O)OC(C(=O)c1cccnc1)c1cccnc1` (stereo unspecified) yielded a melting point of 136 to 138 °C.

In turn, `CC(C)(C)N(Cc1ccccc1)CC(O)c1ccc(OCc2ccccc2)c(C(O)CO)c1` (stereo unspecified) returned a melting point of 148 to 149 °C.

`COC(=O)c1ccc(OC)c2oc(/C=C\C(=O)O)cc12` registered a melting point of 175 to 178 °C.

`CN1CCC(OC(c2cccc(SCCNC(=N)NC#N)c2)c2nc3ccccc3[nH]2)CC1` (stereo unspecified) came in with a melting point of 65 °C.

Molecule `Cc1ccccc1NNC(=O)c1ccccc1C(F)(F)F` showed a melting point of 55 to 57 °C.

For `CCOC(=O)CC(c1ccccc1)N(C(=O)CNC(=O)Nc1cccc(C)c1)c1ccccc1` (racemic), the melting point worked out at 146 °C.

On to `COc1ccc(C(=O)Nc2c(Cl)cncc2Cl)c2c1oc1ccc(NC(C)=O)cc12`, for which the melting point stood at 252 °C.

`O=c1c(Cl)c(Cl)cnn1CC=Cc1ccccc1` showed a melting point of 98 to 99 °C.

In turn, `S=c1nc(-c2ccncc2)[nH]n1Cc1ccccc1` gave a melting point of 160 to 162 °C.

The molecule `C=C=CC(=O)Nc1ccc2ncnc(Nc3cccc(Br)c3)c2c1` had a melting point of 268 to 270 °C.

Turning to `CCn1cc(CC(=O)OC)c(O)n1`, the melting point was in the range of 72 to 73 °C.

The molecule `CC(=O)Nc1ccccc1C(=O)NC(=O)Nc1ccc(Oc2ncc(Br)cn2)c(C)c1` showed a melting point of 186 to 191 °C.

In turn, `CS(=O)(=O)CCCn1c(=N)sc2cc(OC(F)(F)F)ccc21` came in with a melting point of 180 °C.

Regarding `COCC1CCCN1S(=O)(=O)c1cc2c(cc1Cl)N1CCCN=C1C2=O` (stereo unspecified), the melting point fell in the range of 127 to 130 °C.

In turn, `OC1(Cn2cncn2)CCCC1Cc1ccc(-c2ccccc2)cc1` (stereo unspecified) gave a melting point of 145 to 148 °C.

In turn, `O=C(NCCO)/C(=C/c1ccc(OC2CC2)cc1)NC(=O)c1ccc(OCCc2ccc(Cl)cc2)cc1` returned a melting point of 66 to 69 °C.

The molecule `CCCc1c(OCc2ccccc2C(=O)OC)ccc(C(C)=O)c1O` registered a melting point of 90 to 93 °C.

For the molecule `O=S(=O)(Cc1nnc(-c2ccc3c(c2)CCO3)o1)c1cccc(F)c1`, the melting point was 93 to 94 °C.

With `COC(=O)C1=C(N)CCC1`, the melting point fell in the range of 95 to 96 °C.

Molecule `CCC(CC)Nc1cc(C)nc(Oc2c(C)cc(Cl)cc2C)c1N` displayed a melting point of 72 to 74 °C.

In the case of `CCN(Cc1ccc(Cl)nc1)C1=C([N+](=O)[O-])C2CCC(O2)N1C` (stereo unspecified), the melting point is 125 to 126 °C.

Regarding `CCOC(=O)N1CCC(NC(=O)c2ccc(Cl)cc2Cl)C12CCCCC2` (stereo unspecified), the melting point was 143 to 144 °C.

For `CCn1c(=O)[nH]c2c3cccnc3ccc21`, the melting point was in the range of 258 to 259 °C.

`COc1ccc(-c2nc3cc4c(cc3[nH]2)C(C)(C)CC(=O)N4)cc1`: the melting point was in the range of 235 to 238 °C.

For the molecule `Nc1nc2ccccc2c2c1ncn2Cc1cc(-c2ccc(F)cc2)no1`, the melting point lay in the range of 259 to 260 °C.

As for `Brc1cc(-c2ccccc2)cc(-c2ccccc2)c1`, the melting point came out at 109 °C.

As for `Nc1nc(N)c(-c2cc(Cl)cc(Cl)c2Cl)nc1CO`, the melting point lay within 185 to 186 °C.

Regarding `CCOP(=O)(NCc1ccc2c(c1)-c1n[nH]c(=O)c3cccc(c13)O2)OCC`, the melting point lay within 222 to 224 °C.

As to `Nc1ncnc2c1c(-c1cn[nH]c1)nn2Cc1oc2ccc(F)cc2c(=O)c1-c1ccccc1`, the melting point fell in the range of 211 to 214 °C.

`COCCNC(=O)c1cccc(-c2cccc3cc(Cc4cc(Cl)cc(Cl)c4)sc23)c1` gave a melting point of 109 to 110 °C.

With `O=C(O)c1ccc(COCc2csc3nc(C(=O)NCc4ccc(F)c(Br)c4)[nH]c(=O)c23)cc1`, the melting point is 231 to 233 °C.

In turn, `O=[N+]([O-])c1ccc2c(c1)OP(=O)(N(CCCl)CCCl)NC2` (stereo unspecified) registered a melting point of 123 to 126 °C.

As for `CCCCc1nc2c(N)nc3ccccc3c2n1CCNC(=S)Nc1ccc(-c2c3ccc(=O)cc-3oc3cc(O)ccc23)c(C(=O)O)c1`, the melting point was more than 245 °C.

Regarding `Cc1nnc(-c2ccccc2F)n2nc(OCc3ncnn3C)c(-c3ccccc3)c12`, the melting point was 159 to 162 °C.

The molecule `O=C(O)c1cc(COc2ccccc2)cc(Cn2cc(C3c4ccccc4C=Cc4ccccc43)c(=S)[nH]c2=O)c1` gave a melting point of 160 to 165 °C.

Regarding `N#CC1=C(c2cccs2)Nc2n[nH]cc2C1c1ccccc1Cl` (stereo unspecified), the melting point came to 174 °C.

`Cc1cc(Oc2ccc(S(C)(=O)=O)c(S(F)(F)(F)(F)F)c2)c(S(C)(=O)=O)cc1C(=O)NC(=N)N` showed a melting point of 275 °C.

Take `O=C(O)c1coc2ccc(OCc3ccccc3)cc2c1=O`: the melting point was 170 to 173 °C.

Consider `CN(C)S(=O)(=O)c1ccccc1Cl`, for which the melting point lay in the range of 49 to 51 °C.

In turn, `CCNCC1CN(c2c(F)cc3c(=O)c(C(=O)O)cn(C4CC4)c3c2F)CC1C` (stereo unspecified) displayed a melting point of 224 to 226 °C.

In turn, `Cn1cncc1C(O)(c1ccc(Cl)cc1)c1ccc2nc(C=CC(N)=O)cc(-c3cccc(Cl)c3)c2c1` (stereo unspecified) came in with a melting point of 80 °C.

The molecule `O=C(O)c1cnc(C(=O)O)c2ccccc12` returned a melting point of 216 °C.

Molecule `O=C(O)n1ccc2c(OCc3ccccc3)c(Cc3ccccc3)ccc21` registered a melting point of 181 to 183 °C.

In turn, `CCCCCCCCCCCCCCOc1ccc(C(=O)N(CC(=O)O)CC(=O)O)cc1OCCCCCCCCCCCCCC` had a melting point of 84 to 87 °C.

Take `CCCC(CCC)n1c(CC)nc2c1c(=O)n(C)c(=O)n2-c1c(C)cc(C)cc1C`: the melting point lay within 195 to 196 °C.

Take `COc1cc(C(C)C)c2c(c1)S(=O)(=O)N(COC(=O)c1c(Cl)ccc(O)c1Cl)C2=O`: the melting point fell in the range of 152 to 154 °C.

`Cc1cccc2c(=O)[nH]c(C3CCC(N(C)C)CC3)nc12` (stereo unspecified) showed a melting point of 181 to 183 °C.

Molecule `CCCCCCCCCCCCCCCC(=O)Nc1cc(NC(=O)CCCCCCCCCCCCCCC)cc(C(=O)N(CC(=O)O)CC(=O)O)c1` yielded a melting point of 129 to 133 °C.

In turn, `CC(C)(C)NS(=O)(=O)Cl` had a melting point of 28 to 30 °C.

The molecule `Nc1cnc(Br)c(Cl)n1` displayed a melting point of 120 to 122 °C.

Regarding `C=CCOc1ccc(OC2CCCCO2)c2c1CCC(=O)N2` (stereo unspecified), the melting point is 113 to 115 °C.

In turn, `CCOCC(N=O)C(C)(C)Cl` (stereo unspecified) had a melting point of 84 to 85 °C.

`N#Cc1ccc(CCn2ccn(C3CCc4ccccc4C3)c2=S)cc1` (stereo unspecified) came in with a melting point of 169 to 170 °C.

In turn, `CC(C)(C)NC(=O)c1ccc(S(=O)(=O)N2C(=O)C(C)(c3ccccc3Cl)c3cc(O)ccc32)cc1` (stereo unspecified) showed a melting point of 262 °C.

As for `COC(=O)C(Br)c1ccc(OCCOc2ccc(Cl)cc2)cc1` (stereo unspecified), the melting point is 76 to 80 °C.

`CCCCCCCCCCCC(=O)NCCOCCn1c(CCOC)nc2c(N)nc3ccccc3c21` showed a melting point of 80 to 83 °C.

`Cc1oc(-c2ccccc2)nc1COc1ccc(/C=C/CO)cn1` showed a melting point of 116 to 117 °C.

`O=C(c1ccc(O)cc1)c1nn(C2CCCC2)c2c(C(F)(F)F)cccc12` yielded a melting point of 225 to 226 °C.

The molecule `CC(C)c1ncc(C(=O)O)nc1C(C)C` gave a melting point of 128 to 130 °C.

`CC(O)CNS(=O)(=O)c1ccc(Nc2nc(OCC3CCCCC3)c3nc[nH]c3n2)cc1` (stereo unspecified) displayed a melting point of 236 to 238 °C.

`CCOn1cnc2c(N)nc3ccccc3c21` came in with a melting point of 179 to 181 °C.

On to `O=C(O)CNC(=O)c1ncc(-c2cccc(F)c2)cc1O`, for which the melting point fell in the range of 182 to 184 °C.

`Cc1ccc(-c2nc(N)n3nc(-c4ccco4)nc3n2)cc1` came in with a melting point of more than 275 °C.

`CC(C)c1cccc(-c2nscc2C(=O)O)c1`: the melting point lay in the range of 143 to 157 °C.

Molecule `CCN1c2ncc(CCc3ccncc3)cc2C(=O)N(C)c2ccc(Cl)nc21` returned a melting point of 158 to 159 °C.

In the case of `CNc1nc(Cl)c(OC(F)F)c(N(C)C)n1`, the melting point was in the range of 127 to 130 °C.

In the case of `CCCn1nc2c(N)nc3cnccc3c2c1CCNC(=O)c1ccc(F)cc1`, the melting point was in the range of 317 to 318 °C.

For the molecule `CCc1ccc(-c2nnc(N3CCC(O)CC3)nc2-c2ccc(CC)cc2)cc1`, the melting point lay within 164 to 166 °C.

Regarding `CN1CCN(c2ccc(Nc3ncc4ccc(Sc5ccccc5)n4n3)cc2)CC1`, the melting point lay in the range of 155 to 157 °C.

In turn, `FC1(F)Oc2ccc(C=Cc3nc(CNc4ccc(CCCCn5ccnn5)cc4)co3)cc2O1` returned a melting point of 102 to 104 °C.

`CCn1ncc2c(-c3cncc(C)c3)c(/C=C/C(=O)O)c(COC)nc21` came in with a melting point of 195 to 196 °C.

In turn, `CCOC(=O)Cc1ccc(-c2nc(COc3ccc(COc4nn(-c5ccccc5)cc4/C=C/c4csc(COC(=O)c5ccccc5)n4)cc3OC)c(C)o2)cc1` returned a melting point of 116 to 117 °C.

The molecule `Fc1ccc(CC(c2ccccc2)C(F)(F)F)cc1` (stereo unspecified) gave a melting point of 143 to 145 °C.

Molecule `CC1(C)C=C(c2ccccn2)c2cc(C(=O)O)ccc2O1` gave a melting point of 238 to 240 °C.

`O=C1NC(=O)C(CC#Cc2ccc(Cl)cc2)(Sc2ccc(Cl)cc2)S1` (stereo unspecified) had a melting point of 144 to 146 °C.

For the molecule `CCCc1nsc(NC(=O)NC)c1C(=O)OCC`, the melting point lay within 173 to 174 °C.

In turn, `CCOC(=O)c1c(CCl)nc2cc(OC)c(OC)cc2c1-c1ccc(F)cc1` had a melting point of 147 to 148 °C.

As to `CCOc1c(C)c(N2CCN(c3ccc(OC)cc3)CC2)c(C)c2c1OC(C)C2` (stereo unspecified), the melting point fell in the range of 106 to 108 °C.

As to `COc1ccc(N2CCN(c3ccc([N+](=O)[O-])cc3)CC2)nc1`, the melting point is 160 °C.
